Data reported in patent publication US6451334B2, “Compositions and administration of compositions for the treatment of blood disorders” (priority 1997, dated 2002).
“Also recorded” adds a separate entry of the source.

system: K562 cells; assay: Treatment of K562 cells and analysis of globin mRNA by primer extension; assay type: cell-based, human; conditions: Homo sapiens, K562, 72 h, read-out: increase in γ-globin mRNA over constitutive levels in untreated control K562 cells
Method: K562 cells kindly provided by Dr. George Atweh were cultured with 10% fetal bovine serum (Sigma, St. Louis, Mo.) and RPMI media (Grand Island Biological Company, Grand Island, N.Y.) in a humidified atmosphere with 5% CO2/95% air. Compounds were tested at a final concentration of 1 mM at neutral pH and included butyric acid, phenoxyacetic acid, dimethylbutric acid, alpha-methylhydrocionamic acid, 2,3, and 4-methoxyhydrocinnamic acid, dihydrocinnamic acid, methoxycinnamic acid, methoxyacetic acid, phenylpropionic acid, amino hydrocinnamic acid, DL β- and DL-βamino-n-butyric acid, cinnamic acid, and 2 methylhydrocinnamic acid (Aldrich Chemical Company, St. Louis, Mo.). Additional compounds studied included dimethylhydroxy acetic acid, dimethylpropionic acid, dimethylphenoxyacetic acid, and dimethylmethoxyacetic acid. After three days of culture with these agents, mRNA was purified and α, β, and γ globin mRNA was analyzed by primer extension using oligonucleotide primers and quantitation on a PhosphoImager as previously described.

SMILES	fold induction at 1000 µM
O=C(O)COc1ccccc1 [PAA, phenoxyacetic acid]	2.4 to 26

same assay, conditions: Homo sapiens, K562, 72 h; primer extension, 1 mM, three days of culture, FIG. 1; read-out: increase in γ-globin mRNA over constitutive levels in untreated control K562 cells

SMILES	fold induction at 1000 µM
COc1ccccc1C=CC(=O)O [ST 32, 2-methoxycinnamic acid]	2.4 to 26
CCCC(=O)O [Butyric acid, butyric acid, reference compound]	2
O=C(O)/C=C/c1ccccc1 [ST 47, transcinnamic acid]	2.4 to 26
COc1ccc(CC(=O)O)cc1OC [ST 37, 3,4 dimethoxy phenyl acetic acid]	2.4 to 26
COc1cc(C=CC(=O)O)cc(OC)c1O [ST 44, 3,5 dimethoxy 4-hydroxy cinnamic acid]	2.4 to 26
COc1ccccc1/C=C\C(=O)O [ST 34, cis-2-methoxycinnamic acid]	2.4 to 26
Cc1ccccc1CCC(=O)O [ST 33, 2 methyl hydrocinnamic acid]	2.4 to 26

same assay, conditions: K562 cells, 1 mM

SMILES	stimulating γ globin compared to control cells (ranking in words)
COc1ccccc1C=CC(=O)O [ST 32, 2-methoxycinnamic acid]	most active
CCCC(=O)O [Butyric acid, butyric acid, reference compound]	most active
O=C(O)COc1ccccc1 [PAA, phenoxyacetic acid]	most active
Cc1ccccc1CCC(=O)O [ST 33, 2 methyl hydrocinnamic acid]	most active

same assay, conditions: K562 cells, 1 mM, phosphorimager

SMILES	Radioactivity Alpha Globin (α) mRNA	Radioactivity Fetal Globin (γ) mRNA
COc1ccc(CCC(=O)O)cc1OC [ST 38, 3-3,4-dimethoxy phenyl propionic acid]	191985	1858358
COc1ccccc1C=CC(=O)O [ST 32, 2-methoxycinnamic acid]	36751	957146
COc1ccc(OC)c(CC(=O)O)c1 [ST 40, 2,5 {dimethoxy phenyl} acetic acid]	85941	1240100
O=C(O)COc1ccccc1 [PAA, phenoxyacetic acid]	507148	2755891
COc1ccc(CC(=O)O)cc1OC [ST 37, 3,4 dimethoxy phenyl acetic acid]	106875	1206529
COc1ccccc1/C=C\C(=O)O [ST 34, cis-2-methoxycinnamic acid]	105452	2255627
Cc1ccccc1CCC(=O)O [ST 33, 2 methyl hydrocinnamic acid]	89473	1388899

same assay, conditions: ratio of globin mRNA radioactivity, K562 cells, 1 mM

SMILES	γ/α
COc1ccc(CCC(=O)O)cc1OC [ST 38, 3-3,4-dimethoxy phenyl propionic acid]	9.7
COc1ccccc1C=CC(=O)O [ST 32, 2-methoxycinnamic acid]	26.0
COc1ccc(OC)c(CC(=O)O)c1 [ST 40, 2,5 {dimethoxy phenyl} acetic acid]	14.4
O=C(O)COc1ccccc1 [PAA, phenoxyacetic acid]	5.4
COc1ccc(CC(=O)O)cc1OC [ST 37, 3,4 dimethoxy phenyl acetic acid]	11.3
COc1ccccc1/C=C\C(=O)O [ST 34, cis-2-methoxycinnamic acid]	21.4
Cc1ccccc1CCC(=O)O [ST 33, 2 methyl hydrocinnamic acid]	15.5

same assay, conditions: α and γ globin mRNA

SMILES	pattern of globin gene stimulation in K562 cells
CCCC(=O)O [Butyric acid, butyric acid, reference compound]	stimulated expression of both α and γ globin MRNA
O=C(O)COc1ccccc1 [PAA, phenoxyacetic acid]	stimulated expression of both α and γ globin MRNA
COc1ccccc1/C=C\C(=O)O [ST 34, cis-2-methoxycinnamic acid]	decreased expression of α globin

system: 32D cells; assay: Proliferation studies using 32D cells at low IL-3; assay type: cell-based, murine; conditions: 0.5 U/ml IL-3, 1 mM; listed as butyrate
Method: 32D cells were cultured in RPMI media with 10% fetal bovine serum (Sigma, St. Louis, Mo.), […] glutamine (GIBCO), and murine IL3 (20 U/ml) (Biosource International). Growth factor controls used included the standard concentration of IL-3 required for proliferation of these cells (25 U/ml) and a 50-fold lower concentration (0.5 U/ml), and erythropoietin (3 U/ml) or G-CSF ( U/ml), (Amgen, Thousand Oaks, Calif.). The test compounds were added at final concentrations of 1 mM. As a cell density of 2.5−10×10^5 is necessary for growth of this cell line, this density was maintained by passing the cells at three day intervals or by concentrating the cells when apoptosis occurred. Proportions of cells which were viable or apoptotic, and the fraction of cells in each part of the cell cycle was assessed by incubating the cells with Trypan blue and enumeration, and with propidium iodide incubation and FACScan analysis as previously described.
The effects of the representative compounds which have been synthesized or selected for resistance to beta oxidative metabolism and glucuronidation in stimulating γ globin gene expression in a human erythroid-like cell line and for their effects on cell growth utilizing a multi-lineage murine hematopoietic cell line, 32D. This cell line is dependent on high concentrations of IL-3 for growth. […]

SMILES	effect on 32D cells with low IL-3
CCCC(=O)O [Butyric acid, butyric acid, reference compound]	decreased cell proliferation and cell death; also recorded: Cells die

system: c-myb, c-myc, actin, and histone H3; assay: Northern blots of growth related genes in 32D cells; assay type: cell-based, murine; conditions: low IL-3, 1 mM, Northern blot
Method: Cell proliferation stimulation is transgenic mice, baboons, human cell culture, and a murine multi-lineage cell line by the active compounds, genes whose expression is increased early in cell proliferation induced by hematopoietic growth factors such as IL-3 and erythropoietin were examined. RNA was extracted from 32D cells treated with the compounds for one day and for 11 days. Northern blots were prepared with probes for the early growth related genes c-myb and c-myc and beta actin and histone H3 were used as controls. Increased expression of c-myb occurs transiently, and early, when growth is induced by erythropoietin and IL-3.
The first lane is from cells cultured in no IL-3, lane 2 in 25 U/ml murine IL3 and lanes 3-18 have low IL-3 concentration (0.5 U/ml) plus test compounds. […] All compounds were tested here at 1 mM. […] 20 ug of total RNA from each sample were subjected to Northern blot analysis using specific probes for c-myb, c-myc, actin, and histone H3. One day and 11-day samples from the same treated cells were quantitated by PhosphoImager.

SMILES	c-myb induced
NC(CC(=O)O)c1ccccc1 (stereo not drawn) [ST 30, β-aminohydrocinnamic acid]	2 fold

system: mice transgenic for a human beta globin locus YAC containing a silenced gamma globin gene; assay: In vivo experiments in mice transgenic for the human beta globin gene locus; conditions: 100 to 250 mg/kg in two daily doses, intraperitoneal, within one week
Method: Three prototype compounds, methylhydrocinnamic acid (MHCA), phenoxyacetic acid (PAA), and dimethylbutyric acid PMB), were administered at doses from 100 to 250 mg/kg in two daily doses by intraperitoneal injection to mice transgenic for a human beta globin locus YAC containing a silenced gamma globin gene. Reticulocytes, newly synthesized red blood cells, were counted daily and non-alpha globin in MRNA was analyzed by Rnase protection. Only 50 microliters of blood were removed daily for testing. A 5 to 10-fold increase in reticulocytes and a 1.7-2.4 fold increase in gamma globin mRNA was observed within one week of therapy with the three protype compounds. In contrast, control mice to which normal saline was administered, with the same degree of phlebotomy for testing, had no significant changes in reticulocytes or globin in mRNA.

SMILES	Reticulocytes (fold increase)
O=C(O)COc1ccccc1 [PAA, phenoxyacetic acid]	2.5 to 7 fold

same assay, conditions: mouse, in vivo

SMILES	inducibility of gamma (fetal) globin in the transgenic mice
CCC(N)C(=O)O (stereo not drawn) [alpha amino-n-butyric acid, reference compound]	has not been readily inducible

system: Mononuclear cells from patients with sickle cell disease or thalassemia trait; assay: Erythroid colony (BFU-E) cultures in methylcellulose; assay type: cell-based, human; conditions: 0.2-0.5 mM, optimal growth factors
Method: Mononuclear cells from patients with sickle cell disease or thalassemia trait were isolated on Ficoll Hypague, washed, and cultured in methylcellulose media with optimal concentrations of hematopoietic growth factors IL-3, GM-CSF, Stem Cell Factor, IL6, 3 U/ml Eiythropoietin, insulin, bovine serum albumin, and 0.2-0.5 mM concentrations of test compounds of derivatives of cinnamic acid and hydrocinnamic acid. […] The following illustrates some representative cultures: […]

SMILES	Mean BFU-E/culture 4 cultures averaged (per 0.2 million cells)
O=C(O)/C=C/c1ccccc1 [ST 47, transcinnamic acid]	322
COc1cc(C=CC(=O)O)cc(OC)c1O [ST 44, 3,5 dimethoxy 4-hydroxy cinnamic acid]	215
COc1ccc(C=CC(=O)O)cc1 [4 Methoxycinnamic acid]	191
Cc1ccccc1CCC(=O)O [ST 33, 2 methyl hydrocinnamic acid]	212

same assay, conditions: BFU-E, 0.2-0.5 mM, optimal growth factors

SMILES	% Increase over control
O=C(O)/C=C/c1ccccc1 [ST 47, transcinnamic acid]	18%
COc1cc(C=CC(=O)O)cc(OC)c1O [ST 44, 3,5 dimethoxy 4-hydroxy cinnamic acid]	11%
COc1ccc(C=CC(=O)O)cc1 [4 Methoxycinnamic acid]	8.5%
Cc1ccccc1CCC(=O)O [ST 33, 2 methyl hydrocinnamic acid]	20.5%

system: cell viability; assay: DNA fragmentation assays (cell viability); assay type: cell-based; conditions: not given
Excerpt: Normal cell viability, the viability of an untransformed or uninfected cell, can be determined from analyzing the effects of the composition on one or more biological processes of the cell. Detrimental interference with one or more of these cellular processes becomes significant when the process becomes abnormal. Examples of quantitatable and qualifiable biological processes include the processes of cell division, protein synthesis, nucleic acid (DNA or RNA) synthesis, nucleic acid (principally DNA) fragmentation and apoptosis. Others processes include specific enzyme activities, the activities of the cellular transportation systems such as the transportation of amino acids by system A (neutral), system B (acidic) or system C (basic), and the expression of a cell surface protein. […] Abnormal cell division, for example, can be mitosis which occurs too rapidly, as in a malignancy, or unstably, resulting in programmed cell death or apoptosis, detected by increased DNA degradation. The determination of abnormal cell viability can be made on comparison with untreated control cells. […] Increased cell viability can be determined by those of ordinary skill in the art using, for example, DNA fragmentation analysis. […] Determinations of increased or decreased viability can also be concluded from an analysis of the results of multiple different assays. Where multiple tests provide conflicting results, accurate conclusions can still be drawn by those of ordinary skill based upon the cell type, the correctness or correlation of the tests with actual conditions and the type of composition.

SMILES	cell viability / DNA fragmentation
CC(C)C(N)=O [isobutyramide, reference compound]	decrease cell viability
O=C(O)COc1ccccc1 [PAA, phenoxyacetic acid]	reduce DNA fragmentation
CCCC(=O)OCC [butyric acid ethyl ester]	reduce DNA fragmentation

system: system A transport of amino acids; assay: System A transport of amino acids; assay type: cell-based; conditions: not given
Excerpt: Normal cell viability, the viability of an untransformed or uninfected cell, can be determined from analyzing the effects of the composition on one or more biological processes of the cell. Detrimental interference with one or more of these cellular processes becomes significant when the process becomes abnormal. Examples of quantitatable and qualifiable biological processes include the processes of cell division, protein synthesis, nucleic acid (DNA or RNA) synthesis, nucleic acid (principally DNA) fragmentation and apoptosis. Others processes include specific enzyme activities, the activities of the cellular transportation systems such as the transportation of amino acids by system A (neutral), system B (acidic) or system C (basic), and the expression of a cell surface protein. […] Abnormal cell division, for example, can be mitosis which occurs too rapidly, as in a malignancy, or unstably, resulting in programmed cell death or apoptosis, detected by increased DNA degradation. The determination of abnormal cell viability can be made on comparison with untreated control cells. Compositions preferably increase normal cell viability. Increased cell viability can be determined by those of ordinary skill in the art using, for example, DNA fragmentation analysis. […]

SMILES	system A transport of amino acids
O=C(O)COc1ccccc1 [PAA, phenoxyacetic acid]	do not significantly alter

system: not listed separately; assay: in vivo; conditions: monkey, po
Method: Chronic indwelling venous and arterial catheters which were maintained using sterile technique for blood sampling. Compounds were administered by nasogastric tube and blood was collected to determine drug plasma levels at regular intervals following single oral doses. […] The test compounds were analyzed after ether extraction of the plasma, separation by HPLC, and quantitated by comparison to a spilled internal standard of heptanoic acid according to previously described methods.

SMILES	half-life
O=C(O)COc1ccccc1 [PAA, phenoxyacetic acid]	6.5 h
